Test results from patent publication US12678509B2, “Inhibitor of apoptosis (IAP) protein antagonists” (Sanford Burnham Prebys Medical Discovery Institute, priority 2019, dated 2026).
Where two headings read alike, the source gives them in different places.

Columns and labels:
[1] = Cell viability (CellTiter-Glo), 6-day compound treatment; format: cell-based, Human; details: human, HFF cells, 6 d, read-out: Cell viability at max. concentration
Experimental: (§1) The compound 18a was tested in 16 different cell lines. For 6-day compound treatment 1700 cells per well were plated in a 384-well plate (Corning #781098) and incubated overnight at 37° C./5% CO2. The following day, compounds in 10-fold dilutions were added to the plates and the plates were incubated for 6 days. Afterwards, 20 μL CellTiter-Glo reagent (Promega, #G7570) was added to each well outside of the incubator and the plates were read for luminescence on a Spark® multimode microplate reader (Tecan). Data was fit in GraphPad Prism 8 to a nonlinear regression curve to determine the IC50 of the compounds.

BT549 = experiment: as above; format: cell-based, Human
Experimental: as §1

BxPC3 = experiment: as above; format: cell-based, Human
Experimental: as §1

H69AR = experiment: as above; format: cell-based, Human
Experimental: as §1

HFF = experiment: as above; format: cell-based, Human; details: Homo sapiens, 144 h, read-out: IC50 6 d
Experimental: as §1

HL-60 = experiment: as above; format: cell-based, Human
Experimental: as §1

MALME 3M = experiment: as above; format: cell-based, Human
Experimental: as §1

MDA-MB-231 = experiment: as above; format: cell-based, Human
Experimental: as §1

MDA-MB-468 = experiment: as above; format: cell-based, Human
Experimental: as §1

MV411 = experiment: as above; format: cell-based, Human
Experimental: as §1

MiaPaCa2 = experiment: as above; format: cell-based, Human
Experimental: as §1

NCI-H510A = experiment: as above; format: cell-based, Human
Experimental: as §1

PANC1 = experiment: as above; format: cell-based, Human
Experimental: as §1

SHP-77 = experiment: as above; format: cell-based, Human
Experimental: as §1

SW-1271 = experiment: as above; format: cell-based, Human
Experimental: as §1

MOLM 13 = experiment: as above; format: cell-based, Human; details: for IC50: Homo sapiens, MOLM-13, 144 h
Method in brief: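 Cells plated at 1700 per well, left overnight at 37° C./5% CO2, then exposed to 10-fold compound dilutions for 6 days […]. Viability by CellTiter-Glo luminescence; IC50 from nonlinear regression fit.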

[2] = test system: latently infected cell line Jurkat 2D10; experiment: HIV Jurkat 2D10 cells GFP+ assay (reversal of HIV latency); format: cell-based
Method in brief: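 Jurkat 2D10 cells exposed to graded doses of test compounds or IAP antagonists (BV-6, SM-164, Birinapant, LCL-161, GDC-0152, AT-406) for 48 hours. GFP expression quantified by flow cytometry. Induction expressed relative to baseline GFP in untreated cells.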

[3] = test system: cIAP1 degradation and p100 cleavage in JLat 10.6 cells; experiment: cIAP1 degradation and p100 cleavage (western blot) with GFP expression; format: cell-based; details: 24 hours, different concentrations (FIG. 4)
Experimental: JLat 10.6 cells were treated with different concentrations of compound 18a for 24 hours. GFP expression indicating latency reversal was measured by flow cytometry. cIAP1 degradation and p100 cleavage were assessed by western blot using the antibodies AF8181 (R&D Systems) and #4882 (Cell Signaling Technology), respectively.

[4] = Pharmacokinetic study in mice, snapshot PK; format: in vivo; details: female, C57BL/6J, mouse, plasma, ip, one hour after i.p. injection of 10 mg/kg
Method in brief: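 Female C57BL/6J mice dosed i.p. at 10 mg/kg in 5% DMSO/10% Tween-80/85% water. Plasma from retro-orbital blood at 1 h post-dose, acetonitrile-extracted with indometacin internal standard, parent compound quantified by LC-MS/MS.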

[5] = Homo sapiens, 144 h, read-out: IC50 6 d

CN[C@@H](C)C(=O)N[C@H]1CCS[C@H]2CC(C)(C)[C@@H](C(=O)N[C@H]3c4ccccc4C[C@H]3OCC#CC#CCO[C@@H]3Cc4ccccc4[C@@H]3NC(=O)[C@H]3N4C(=O)[C@@H](NC(=O)[C@H](C)NC)CCS[C@H]4CC3(C)C)N2C1=O [Compound 18a, (2S)-1-{[(4S,7S,9aS)-74{(1S,2R)-2-[(6-{[(1S,2R)-1-({[(4S,7S,9aS)-8,8-Dimethyl-4-{[(2S)-2-(methylammonio)propanoyl]amino}-5-oxooctahydropyrrolo[2,1-b][1,3]thiazepin-7-yl]carbonyl}amino)-2,3-dihydro-1H-inden-2-yl]oxy}hexa-2,4-diyn-1-yl)oxy]-2,3-dihydro-1H-inden-1-yl}carbamoyl)-8,8-dimethyl-5-oxooctahydropyrrolo[2,1-b][1,3]thiazepinyl]amino}-N-methyl-1-oxopropan-2-ammonium dichloride]
viability at 6 d [1]: < 100% | Cell viability at max. concentration (BT549; BT549, 6 d): I (I<10%) | IC50 (BT549; Homo sapiens, BT-549, 144 h, read-out: IC50 6 d): 10 to 100 nM | Cell viability at max. concentration (BxPC3; BxPC3, 6 d): III (50%<III<100%) | IC50 (BxPC3; Homo sapiens, BXPC-3, 144 h, read-out: IC50 6 d): 1000 to 10000 nM | Cell viability at max. concentration (H69AR; 6 d): I (I<10%) | IC50 (H69AR; [5]): 1000 to 10000 nM | IC50 (HFF): < 100000 nM | Cell viability at max. concentration (HL-60; HL-60, 6 d): I (I<10%) | IC50 (HL-60; Homo sapiens, HL-60, 144 h, read-out: IC50 6 d): 10 to 100 nM | IC50 (MALME 3M; Homo sapiens, Malme-3M, 144 h, read-out: IC50 6 d): 10 to 100 nM | Cell viability at max. concentration (MALME 3M; MALME 3M, 6 d): I (I<10%) | IC50 (MDA-MB-231; Homo sapiens, MDA-MB-231, 144 h, read-out: IC50 6 d): 100 to 1000 nM | Cell viability at max. concentration (MDA-MB-231; MDA-MB-231, 6 d): I (I<10%) | IC50 (MDA-MB-468; Homo sapiens, MDA-MB-468, 144 h, read-out: IC50 6 d): 100 to 1000 nM | Cell viability at max. concentration (MDA-MB-468; MDA-MB-468, 6 d): I (I<10%) | IC50 (MV411; Homo sapiens, MV4-11, 144 h, read-out: IC50 6 d): 100 to 1000 nM | Cell viability at max. concentration (MV411; MV411, 6 d): I (I<10%) | IC50 (MiaPaCa2; Homo sapiens, MIA PaCa-2, 144 h, read-out: IC50 6 d): 1000 to 10000 nM | Cell viability at max. concentration (MiaPaCa2; MiaPaCa2, 6 d): I (I<10%) | Cell viability at max. concentration (NCI-H510A; 6 d): IV (IV<100%) | IC50 (NCI-H510A; [5]): < 100000 nM | IC50 (PANC1; Homo sapiens, PANC-1, 144 h, read-out: IC50 6 d): < 100000 nM | Cell viability at max. concentration (PANC1; PANC1, 6 d): IV (IV<100%) | IC50 (SHP-77; Homo sapiens, SHP77, 144 h, read-out: IC50 6 d): < 100000 nM | Cell viability at max. concentration (SHP-77; SHP-77, 6 d): IV (IV<100%) | IC50 (SW-1271; Homo sapiens, SW1271, 144 h, read-out: IC50 6 d): 100 to 1000 nM | Cell viability at max. concentration (SW-1271; SW-1271, 6 d): I (I<10%) | IC50 (MOLM 13; read-out: IC50 6 d): 10 to 100 nM | IC50 (MOLM 13; read-out: MOLM 13 Viability 6 d IC50): 10 to 100 nM | Cell viability at max. concentration (MOLM 13; MOLM 13, 6 d): I (I<10%) | EC50 ([2]; Homo sapiens, Jurkat, 48 h, read-out: Jurkat 2D10 GFP+ EC50): 1 to 10 nM | efficacy in activating the latently infected cell line ([2]; Jurkat 2D10, 48 hours, compared with BV-6, SM-164, Birinapant, LCL-161, GDC-0152, AT-406 (FIG. 1)): higher efficacy in activating the latently infected cell line than many known compounds | cIAP1 degradation and p100 cleavage [3]: correlated with HW latency reversal | concentration at 1 h [4]: 3.52 µM
